Results as given in patent US8211463B2, “Use of glycolipids as adjuvants” (Helmholtz-Zentrum Fuer Infektionsforschung GmbH, priority 2006, dated 2012).

Columns and labels:
[1] = tested on: β-Gal-specific systemic IgG; assay: β-Gal-specific serum IgG ELISA after i.n. or s.c. immunisation with β-Gal plus glycolipid adjuvant; format: in vivo, Balb/c mice; settings: day 38
Protocol: Co-administration of β-Gal with 10 μg glycolipids 1, 5 and 6 induced β-Gal-specific systemic IgG responses in Balb/c mice. Balb/c mice were immunized by the i.n. or s.c. route with β-Gal alone or together with glycolipids 1, 5 and 6 three times at 2-wk intervals. 10 days after the final immunization, the immunized mice were sacrified. The levels of β-Gal-specific systemic IgG were determined in Sera of mice immunized by the i.n. (A) and s.c. (B) route. […] The parenteral administration of with β-Gal co-administered with glycolipids 1, 5 and 6 doubled the β-Galactosidase-specific IgG titer (>500000) in comparison to animals which were immunized with β-Gal alone. Bars represent mean Ab titer or amount±SE in each group. […]
Balb/c mice were immunized by the i.n. or s.c. route with β-Gal alone or together with glycolipids 5 and 6 three times at 2-wk intervals. […] The levels of β-Gal-specific systemic IgG were determined in Sera of mice immunized by the i.n. (A) and s.c. (B) route. […]
Experimental protocol: six-eight weeks-old female BALB/c (H-2d) mice were purchased from Harlan Winkelmann GmbH (Borchen, Germany) and treated in accordance with local and European Community guidelines. […] Endpoint titers were expressed as the reciprocal log 2 of the last dilution, which gave an optical density at 405 nm of 0.1 units above the values of the negative controls after 15 to 30 min of incubation.

[2] = tested on: spleen cells of immunized mice; assay: Splenocyte proliferation ([3H]thymidine incorporation) after in vitro restimulation with β-Gal; format: in vivo, Balb/c mice; settings: i.n., 10 μg glycolipid, restimulation with β-Gal for 4 days
Protocol: (§1) Co-administration of β-Gal with 10 μg glycolipids 1, 5 and 6 induced a strong cellular immune responses against the β-Gal antigen in Balb/c mice. Balb/c mice were immunized by the i.n. or s.c. route with β-Gal alone or together with glycolipids 1, 5 and 6 three times at 2-wk intervals. 10 days after the final immunization, the immunized mice were sacrificed. Splenocytes of mice immunized by the i.n. (A) and s.c. (B) route were collected and cultured with different concentrations of the β-Gal-Protein for 4 days. […] Curves represent [^3H]thymidine incorporation (counts per minute, cpm) and Stimulation index (SI) in each group. Each group consists of five mice. Data are representative of three separate experiments.
as §1, with “with 20 up to 30” for “with 10”, “glycolipids” for “glycolipids 1,”, “represent [3H]thymidine incorpoaration” for “represent [^3H]thymidine incorporation”
Experimental protocol: Spleens were removed and pooled for analysis of cellular immune responses. Cells were grown in RPMI 1640 supplemented with 10% fetal calf serum, 100 U/ml of penicillin, 50 μg/ml of streptomycin, 5×10^−5 M 2-mercaptoethanol and 1 mM L-glutamine (GIBCO BRL, Karlsruhe, Germany) and maintained at 37° C. in a humidified 5% CO2 atmosphere. Spleen cell suspensions were adjusted to 5×10^6 cells/ml in complete medium, cells were seeded with 100 μl per well in a flat-bottomed 96-well microtiter plate (Nunc) and plates were incubated for 4 days. Unstimulated spleen cells were incubated in the presence of different concentrations of the new adjuvants to analyze the in vitro stimulation capacity of glycolipids 1, 5 or 6, respectively. T cellmediated immune responses were investigated at day 38 by measuring the proliferation of cells recovered from spleens after in vitro restimulation with β-Gal. Said spleen cells were obtained from vaccinated mice—said mice where immunized as described in Example 2—and incubated in the presence of different concentrations of the soluble β-Gal antigen. Each concentration was tested in triplicates. During the final 18 h of culture, 1 μCi of [^3H]thymidine (Amersham International, Freiburg, Germany) was added to each well. Cells were then harvested on paper filters (Filtermat A; Wallac, Freiburg, Germany) by using a cell harvester (Inotech, Wohlen, Switzerland), and the amount of incorporated [^3H]thymidine into the DNA of proliferating cells was determined by a β-scintillation counter (Wallac 1450, Micro-Trilux). The results are expressed as the arithmetic mean of [^3H]thymidine uptake in cpm.

Question: How did the “β-Galactosidase-specific IgG titer in serum” value ([1]; 10 μg glycolipid + 30 μg β-Gal, three immunisations) turn out when β-Gal was run?
Answer: < 1/10000 and very low antibody titers

Question: And the “β-Galactosidase-specific IgG titer in serum” value ([1]; 20 or 30 μg glycolipid + 30 μg β-Gal)?
Answer: < 1/10000

Question: What about the “Stimulation index (SI), [3H]thymidine incorporation of spleen cells” value [2] of the same substance?
Answer: no effect
